Measured values reported in the CheMixHub viscosity set.

Assay: xn = mol fraction of the nth substance listed

CCC(=O)OC + ClC(Cl)C(Cl)Cl
viscosity [mPa·s], 101.3 kPa
Details | 308.15 K | 318.15 K
x1 = 0.0501 | 1.352 | 1.214
x1 = 0.1021 | 1.296 | 1.149
x1 = 0.2031 | 1.186 | 1.032
x1 = 0.302 | 1.078 | 0.927
x1 = 0.3398 | 1.037 | 0.889
x1 = 0.5038 | 0.865 | 0.741
x1 = 0.6012 | 0.769 | 0.664
x1 = 0.6946 | 0.681 | 0.597
x1 = 0.7988 | 0.591 | 0.528
x1 = 0.9016 | 0.509 | 0.468
x1 = 0.9481 | 0.474 | 0.443

CCOCCOCCOCCO + ClC=C(Cl)Cl
298.15 K, 101.33 kPa
Details | viscosity [mPa·s]
x1 = 0.0053 | 0.54
x1 = 0.0167 | 0.565
x1 = 0.026 | 0.587
x1 = 0.0395 | 0.618
x1 = 0.0528 | 0.651
x1 = 0.0728 | 0.707
x1 = 0.1054 | 0.809
x1 = 0.1458 | 0.947
x1 = 0.1858 | 1.103
x1 = 0.2345 | 1.326
x1 = 0.2866 | 1.587
x1 = 0.3318 | 1.832
x1 = 0.3679 | 2.048
x1 = 0.4108 | 2.323
x1 = 0.447 | 2.559
x1 = 0.4818 | 2.796
x1 = 0.523 | 3.087
x1 = 0.5639 | 3.396
x1 = 0.6278 | 3.88
x1 = 0.6904 | 4.378
x1 = 0.7278 | 4.683
x1 = 0.7721 | 5.051
x1 = 0.8271 | 5.521
x1 = 0.8733 | 5.952
x1 = 0.9136 | 6.273
x1 = 0.9317 | 6.46
x1 = 0.9672 | 6.773
x2 = 0.0194 | 6.891

CCC(=O)OC + Clc1ccccc1
viscosity [mPa·s], 101.3 kPa
Details | 308.15 K | 318.15 K
x1 = 0.0485 | 0.646 | 0.598
x1 = 0.0993 | 0.635 | 0.589
x1 = 0.2038 | 0.612 | 0.57
x1 = 0.2614 | 0.599 | 0.559
x1 = 0.4087 | 0.567 | 0.531
x1 = 0.4556 | 0.556 | 0.522
x1 = 0.6041 | 0.523 | 0.493
x1 = 0.7011 | 0.503 | 0.475
x1 = 0.8064 | 0.479 | 0.454
x1 = 0.9054 | 0.457 | 0.434
x1 = 0.9486 | 0.448 | 0.426

C=CCNCC=C.CC(=O)O + O
101 kPa, x2 = 0.284
Details | viscosity [mPa·s]
298.15 K | 80
308.15 K | 45.7
318.15 K | 27.6
